Laboratory results reported in US12371454B2, “Cyclic peptide compound having Kras inhibitory action” (priority 2019, dated 2025).
Starred links: 1 amine or outer side, 2 acyl side, 3 side chain; linkers in the order of their positions; H or OH if unused. Positions of bridges follow the written chain, without caps; N, C: chain ends. Non-standard residues stand in square brackets, D forms with d. Residues, ends and D or L forms follow the SMILES beside them. *: point of attachment. hPhe(3-Cl-4-CF3) = N[C@@H](CCc1ccc(C(F)(F)F)c(Cl)c1)C(=O)O; hPhe(3-F,4-CF3) = N[C@@H](CCc1ccc(C(F)(F)F)c(F)c1)C(=O)O; hPhe(4-CF3) = N[C@@H](CCc1ccc(C(F)(F)F)cc1)C(=O)O; NMePhe(4-Cl) = CN[C@@H](Cc1ccc(Cl)cc1)C(=O)O; NMePhe(4-Me) = CN[C@@H](Cc1ccc(C)cc1)C(=O)O; NMePhe(3-F) = CN[C@@H](Cc1cccc(F)c1)C(=O)O; NMeMet(O2) = CN[C@@H](CCS(C)(=O)=O)C(=O)O; NMedβ3hAla = C[C@H](CC(=O)[*:2])N(C)[*:1]; NMeGly(cPent) = CN[C@H](C(=O)O)C1CCCC1; Phe(3-I) = N[C@@H](Cc1cccc(I)c1)C(=O)O; Pro(4,4-F2) = O=C(O)[C@@H]1CC(F)(F)CN1; NMeCha = CN[C@@H](CC1CCCCC1)C(=O)O; X2 = C=CC[C@](C)(N[*:1])C(=O)[*:2]; NMeChg = CN[C@H](C(=O)O)C1CCCCC1; NMeF = CN[C@@H](Cc1ccccc1)C(=O)O; N(CH2CH2)2CF2 = FC1(F)CCN(*)CC1; NMeβAla = CN(CCC(=O)[*:2])[*:1]; NMeD = CN[C@@H](CC(=O)O)C(=O)O; CH2CONHtBu = CC(C)(C)NC(=O)C*; NMeL = CN[C@@H](CC(C)C)C(=O)O; NMeV = CN[C@H](C(=O)O)C(C)C; d(β3hA) = C[C@@H](N)CC(=O)O; NMeS = CN[C@@H](CO)C(=O)O; Ac6c = NC1(C(=O)O)CCCCC1; NMeA = CN[C@@H](C)C(=O)O; Nle = CCCC[C@H](N)C(=O)O; Piperidide = C1CCN(*)CC1; Pyrrolidide = C1CCN(*)C1; Ac5c = NC1(C(=O)O)CCCC1; Aze = O=C(O)[C@@H]1CCN1; Abu = CC[C@H](N)C(=O)O; Ac4c = NC1(C(=O)O)CCC1; CH2CMe2OH = CC(C)(O)C*; βAla = NCCC(=O)O; Sar = CNCC(=O)O

Molecular target: T1, Kras and SOS1 (biotin-tagged human Kras loaded with GDP, His-tagged human SOS1) (Homo sapiens, UniProt P01116, G12D)
T1 construct: made in house; host or cells: E. coli (stated for Kras only)
Assay: Protein-protein interaction inhibition between Kras and SOS1 (KrasGl2D-SOS PPI) using AlphaScreen
Format: binding
Settings: AlphaScreen; biotin-tagged human Kras loaded with GDP, His-tagged human SOS1; read-out: KRAS G12D-SOS PPI IC50
Outline: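 AlphaScreen format: Ni donor beads capture His-SOS1, streptavidin acceptor beads capture biotinylated Kras (E. coli-expressed, GDP-loaded post-purification). Excite 680 nm, read 520-620 nm.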

T1 sequence (P01116 1-188 isoform P01116-2 G12D): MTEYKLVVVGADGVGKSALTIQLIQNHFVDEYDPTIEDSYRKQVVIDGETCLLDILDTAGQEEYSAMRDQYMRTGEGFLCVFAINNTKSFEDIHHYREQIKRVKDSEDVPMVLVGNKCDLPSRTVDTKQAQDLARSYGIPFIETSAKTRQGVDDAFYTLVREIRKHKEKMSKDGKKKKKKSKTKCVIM

Structure (SMILES)	IC50
CC[C@H](C)[C@@H]1NC(=O)[C@H](CC(C)C)N(C)C(=O)C[C@@H](C)NC(=O)[C@H](CC(C)C)N(C)C(=O)C2(CCCCC2)NC(=O)[C@@H]2CCCN2C(=O)[C@H](CCc2ccc(C(F)(F)F)c(F)c2)NC(=O)CN(C)C(=O)[C@H](CC2CCCCC2)N(C)C(=O)CN(C)C(=O)CN(C)C1=O [Compound 231] (cyclo([Ac6c][NMeL][d(β3hA)][NMeL]I[Sar][Sar][NMeCha][Sar][hPhe(3-F,4-CF3)]P))	120 nM
CCCC[C@@H]1NC(=O)[C@H](Cc2cccc(I)c2)NC(=O)CN(C)C(=O)[C@H](Cc2ccc(C)cc2)N(C)C(=O)CN(C)C(=O)CN(C)C(=O)[C@H]([C@@H](C)CC)NC(=O)[C@H](CC(C)C)N(C)C(=O)C[C@@H](C(=O)N2CCCCC2)N(C)C(=O)[C@H](CC(C)C)NC(=O)[C@H](C)N(C)C1=O [Compound 232] ([NMeL]I[Sar][Sar][NMePhe(4-Me)][Sar][Phe(3-I)][Nle][NMeA]L[NMeD]-Piperidide; lactam N-11)	20 nM
CC[C@H](C)[C@@H]1NC(=O)[C@H](C)N(C)C(=O)C[C@@H](C(=O)N2CCCC2)NC(=O)[C@H](CC(C)C)N(C)C(=O)[C@H](Cc2ccccc2)N(C)C(=O)[C@H](COCC(=O)NC(C)(C)C)NC(=O)[C@H](CCc2ccc(C(F)(F)F)cc2)NC(=O)CN(C)C(=O)[C@H](Cc2ccc(Cl)cc2)N(C)C(=O)CN(C)C(=O)CN(C)C1=O [Compound 233] ([NMeA]I[Sar][Sar][NMePhe(4-Cl)][Sar][hPhe(4-CF3)]S(CH2CONHtBu)[NMeF][NMeL]D-Pyrrolidide; lactam N-11)	66 nM
CC[C@H](C)[C@@H]1NC(=O)[C@H](CC(C)C)N(C)C(=O)C[C@@H](C(=O)N2CCCCC2)N(C)C(=O)[C@H](C(C)C)N(C)C(=O)C2(CCCC2)NC(=O)[C@@H]2CCCN2C(=O)[C@H](CCc2ccc(C(F)(F)F)c(Cl)c2)NC(=O)CN(C)C(=O)[C@H](CCS(C)(=O)=O)N(C)C(=O)[C@@H]2CCN2C(=O)[C@H](C)N(C)C1=O [Compound 235] ([NMeL]I[NMeA][Aze][NMeMet(O2)][Sar][hPhe(3-Cl-4-CF3)]P[Ac5c][NMeV][NMeD]-Piperidide; lactam N-11)	11 nM
CC[C@H](C)[C@@H]1NC(=O)CCNC(=O)[C@H](Cc2cccc(F)c2)N(C)C(=O)[C@H](C2CCCCC2)N(C)C(=O)C2(CCCC2)NC(=O)[C@@H]2CCCN2C(=O)[C@H](CCc2ccc(C(F)(F)F)c(Cl)c2)NC(=O)CN(C)C(=O)[C@H](CC2CCCCC2)N(C)C(=O)CN(C)C(=O)CN(C)C1=O [Compound 237] (cyclo([Ac5c][NMeChg][NMePhe(3-F)][βAla]I[Sar][Sar][NMeCha][Sar][hPhe(3-Cl-4-CF3)]P))	42 nM
CC[C@@H]1NC(=O)[C@H](CC(=O)N2CCC(F)(F)CC2)N(C)C(=O)[C@H](CCc2ccc(C(F)(F)F)c(Cl)c2)NC(=O)CN(C)C(=O)[C@H](CC2CCCCC2)N(C)C(=O)CN(C)C(=O)CN(C)C(=O)[C@H]([C@@H](C)CC)NC(=O)[C@H](CC(C)C)N(C)C(=O)C[C@@H](C(=O)N2CCCCC2)N(C)C(=O)[C@H](C(C)C)N(C)C1=O [Compound 240] ([NMeL]I[Sar][Sar][NMeCha][Sar][hPhe(3-Cl-4-CF3)][NMeD](N(CH2CH2)2CF2)[Abu][NMeV][NMeD]-Piperidide; lactam N-11)	140 nM
CC[C@H](C)[C@@H]1NC(=O)[C@H](CC(C)C)N(C)C(=O)C[C@@H](C)N(C)C(=O)[C@H](C2CCCCC2)N(C)C(=O)C2(CCC2)NC(=O)[C@@H]2CC(F)(F)CN2C(=O)[C@H](CCc2ccc(C(F)(F)F)c(Cl)c2)NC(=O)CN(C)C(=O)[C@H](CC2CCCCC2)N(C)C(=O)CN(C)C(=O)CN(C)C1=O [Compound 241] (cyclo([Ac4c][NMeChg][NMedβ3hAla][NMeL]I[Sar][Sar][NMeCha][Sar][hPhe(3-Cl-4-CF3)][Pro(4,4-F2)]))	18 nM
C=CC[C@]1(C)NC(=O)[C@@H]2CCCN2C(=O)[C@H](CCc2ccc(C(F)(F)F)c(Cl)c2)NC(=O)CN(C)C(=O)[C@H](CC2CCCCC2)N(C)C(=O)CN(C)C(=O)CN(C)C(=O)[C@H]([C@@H](C)CC)NC(=O)[C@H](CC(C)C)N(C)C(=O)C[C@@H](C)NC(=O)[C@H](C(C)C)N(C)C1=O [Compound 242] (cyclo(I[Sar][Sar][NMeCha][Sar][hPhe(3-Cl-4-CF3)]P[X2][NMeV][d(β3hA)][NMeL]))	27 nM
CC[C@H](C)[C@@H]1NC(=O)CCN(C)C(=O)[C@H](COCC(C)(C)O)N(C)C(=O)[C@H](C2CCCC2)N(C)C(=O)C2(CCCC2)NC(=O)[C@@H]2CCCN2C(=O)[C@H](CCc2ccc(C(F)(F)F)c(Cl)c2)NC(=O)CN(C)C(=O)[C@H](CC2CCCCC2)N(C)C(=O)CN(C)C(=O)CN(C)C1=O [Compound 244] (cyclo([Ac5c][NMeGly(cPent)][NMeS](CH2CMe2OH)[NMeβAla]I[Sar][Sar][NMeCha][Sar][hPhe(3-Cl-4-CF3)]P))	140 nM
